pEC50: −log10 of the molar value.
biological target: FXR (Homo sapiens (Human), UniProt Q96RI1); experiment: transient human FXR/Gal4-luciferase reporter assay; format: cell-based; settings: Gal4-hFXR LBD fusion in HEK293 reporter cells; relative to 8 μM GW-4064
Experimental: The exemplified compounds of the present invention were tested in the transient human FXR/Gal4-luciferase reporter assay, and assay results were described in the EXAMPLES section hereinbefore.
A Gal4-hFXR fusion construct reporter system was used as the primary assay to characterize compound activity. A construct including 5 copies of the Gal4 promoter response element upstream of a firefly luciferase reporter cDNA was stably expressed in HEK293 cells. This reporter cell line was maintained in Dulbecco's Modified Eagle's medium (DMEM; Gibco) supplemented with 1% penicillin-streptomycin (P/S) solution, 500 μg/ml Zeocin and 10% charcoal/dextran-treated fetal bovine serum (cs-FBS) at 37° C. in a humidified 5% CO2 atmosphere. Another plasmid was constructed in which the human cytomegalovirus promoter in the pcDNA3.1 vector directs the expression of the cDNA encoding a fusion protein comprised of the DNA binding domain from the Gal4 transcription factor fused to the ligand binding domain from human FXR.
The day prior to transfection, the reporter cells in culture are detached from the plate with trypsin and plated into a T75 flask at a sufficient density to achieve approximately 90% confluence the next morning. The transfection reagents are prepared by separately diluting 25 μg of the pcDNA3.1-Gal4-FXR plasmid into 1.87 mL of Opti-MEM (Thermo-Fisher), and 40 μL of Lipofectamine 2000 (Thermo-Fisher) into 1.87 mL of Opti-MEM, and then adding the diluted DNA solution into the diluted Lipofectamine 2000 solution and incubating at room temperature for 15-20 minutes. The mixture is further diluted with 10 mL of a solution comprised of DMEM, 10% cs-FBS, and 1% P/S immediately prior to transferring to the cells. The maintenance culture media is aspirated from the cells and the final transfection mixture is added before the cells are incubated overnight at 37° C. in a humidified 5% CO2 atmosphere. This protocol can be scaled up, and the transiently transfected cells can be cryopreserved in an assay-ready format.
For compound testing, 100 nL of the compounds (serial dilutions in DMSO) are dispensed with an Echo acoustic dispenser (Labcyte) into the wells of a Corning/Costar clear bottom 384-well white plate. The transfected cells are harvested, counted, and diluted such that 10-25,000 cells in 25 μL are plated into each well of the 384-well compound assay plate. The compound-treated cells are incubated overnight at 37° C. in a humidified 5% CO2 atmosphere. The next morning 25 μL of Steady-Glo (Promega) are added to each well of the plate, the mixture is incubated for 15 min. with shaking, and luminescence is measured on an Envision (Perkin Elmer) plate reader. Background counts from cells treated with DMSO alone are subtracted from all raw counts, and the corrected values are converted to a percentage of the control response attained with 8 μM GW-4064.

FXR, sequence (Q96RI1 262-486): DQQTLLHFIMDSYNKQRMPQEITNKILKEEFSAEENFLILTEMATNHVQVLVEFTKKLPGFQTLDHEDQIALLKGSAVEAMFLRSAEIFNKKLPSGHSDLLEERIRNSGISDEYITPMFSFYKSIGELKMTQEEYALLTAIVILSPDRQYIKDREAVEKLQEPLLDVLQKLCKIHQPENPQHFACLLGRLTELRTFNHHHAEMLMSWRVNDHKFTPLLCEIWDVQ

| SMILES | pEC50 |
| --- | --- |
| O=C(O)CCc1ccc(C#CC23CCC(OCc4c(-c5c(Cl)cncc5Cl)noc4C4CC4)(CC2)CC3)cc1 [Example 564] | 6.76 |
| O=C(O)Cc1ccc(C#CC23CCC(OCc4c(-c5c(Cl)cncc5Cl)noc4C4CC4)(CC2)CC3)c(C(F)(F)F)c1 [Example 565] | 6.94 |
| O=C(O)COCc1ccc(C#CC23CCC(OCc4c(-c5c(Cl)cncc5Cl)noc4C4CC4)(CC2)CC3)cc1 [Example 566] | 6.71 |
| O=C(O)Cc1ccc(C#CC23CCC(OCc4c(-c5c(Cl)cncc5Cl)noc4C4CC4)(CC2)CC3)cc1F [Example 567] | 6.92 |
| CN1CCN(c2ncc(C(=O)O)cc2C#CC23CCC(OCc4c(-c5c(Cl)cncc5Cl)noc4C4CC4)(CC2)CC3)CC1 [Example 568] | 6.28 |
| O=C(O)COCc1ccc(C#CC23CCC(OCc4c(-c5c(Cl)cncc5Cl)noc4C4CC4)(CC2)CC3)nc1 [Example 569] | 5.86 |
| CN1CCN(c2nc(C(=O)O)cc3cc(C#CC45CCC(OCc6c(-c7c(Cl)cncc7Cl)noc6C6CC6)(CC4)CC5)ccc23)CC1 [Example 570] | 6.70 |
| O=C(O)COCc1ccc(C#CC23CCC(OCc4c(-c5c(Cl)cncc5Cl)noc4C4CC4)(CC2)CC3)cn1 [Example 571] | 6.57 |
| CN(C)C1CN(c2nc(C(=O)O)cc3ccc(C#CC45CCC(OCc6c(-c7c(Cl)cncc7Cl)noc6C6CC6)(CC4)CC5)cc23)C1 [Example 572] | 7.21 |
| O=C(O)c1cc2ccc(C#CC34CCC(OCc5c(-c6c(Cl)cncc6Cl)noc5C5CC5)(CC3)CC4)cc2c(N2CCNCC2)n1 [Example 573] | 5.79 |
| O=C(O)c1cc2ccc(C#CC34CCC(OCc5c(-c6c(Cl)cncc6Cl)noc5C5CC5)(CC3)CC4)cc2c(OCCN2CCCC2)n1 [Example 574] | 5.86 |
| CCOc1nc(C(=O)O)cc2ccc(OCC34CCC(OCc5c(-c6c(Cl)cncc6Cl)noc5C5CC5)(CC3)CC4)cc12 [Example 575] | 7.74 |
| Cc1nc(NCC23CCC(OCc4c(-c5c(Cl)cccc5Cl)noc4C4CC4)(CC2)CC3)sc1CC(=O)O [Example 577] | 6.07 |
| O=C(O)c1cn2c(n1)CN(CC13CCC(OCc4c(-c5c(Cl)cccc5Cl)noc4C4CC4)(CC1)CC3)CC2 [Example 578] | 6.04 |
| O=C(O)c1ccc(NCC23CCC(OCc4c(-c5c(Cl)cccc5Cl)noc4C4CC4)(CC2)CC3)nc1 [Example 579] | 7.15 |
| O=C(O)c1cncc(NCC23CCC(OCc4c(-c5c(Cl)cccc5Cl)noc4C4CC4)(CC2)CC3)c1 [Example 580] | 6.27 |
| Cn1nc(NCC23CCC(OCc4c(-c5c(Cl)cccc5Cl)noc4C4CC4)(CC2)CC3)cc1C(=O)O [Example 581] | 6.58 |
| COc1ncc(-c2noc(C34CCC(OCc5c(-c6c(Cl)cncc6Cl)noc5C5CC5)(CC3)CC4)n2)cc1C(=O)O [Example 585] | 6.94 |
| CC(C)Oc1cc(C(=O)O)nc2ccc(CCC34CCC(OCc5c(-c6c(Cl)cncc6Cl)noc5C5CC5)(CC3)CC4)cc12 [Example 586] | 7.52 |
| O=C(O)Cc1ccc(/C=C/C23CCC(OCc4c(-c5c(Cl)cncc5Cl)noc4C4CC4)(CC2)CC3)cc1 [Example 587] | 6.76 |
| O=C(O)c1ccc2cc(/C=C/C34CCC(OCc5c(-c6c(Cl)cncc6Cl)noc5C5CC5)(CC3)CC4)ccc2n1 [Example 588] | 7.06 |
| O=C(O)c1cc(OC2CCCC2)c2cc(/C=C/C34CCC(OCc5c(-c6c(Cl)cncc6Cl)noc5C5CC5)(CC3)CC4)ccc2n1 [Example 589] | 7.77 |
| COc1nc(C(=O)O)nc2ccc(/C=C/C34CCC(OCc5c(-c6c(Cl)cncc6Cl)noc5C5CC5)(CC3)CC4)cc12 [Example 590] | 6.03 |
| CC(C)Oc1cc(C(=O)O)nc2ccc(/C=C/C34CCC(OCc5c(-c6c(Cl)cncc6Cl)noc5C5CC5)(CC3)CC4)cc12 [Example 591] | 7.80 |
| O=C(O)c1cnc2cc(/C=C/C34CCC(OCc5c(-c6c(Cl)cncc6Cl)noc5C5CC5)(CC3)CC4)ccn12 [Example 592] | 6.71 |
| O=C(O)c1cnc2ccc(/C=C/C34CCC(OCc5c(-c6c(Cl)cncc6Cl)noc5C5CC5)(CC3)CC4)cn12 [Example 593] | 5.95 |
| O=C(O)Cc1ccc(/C=C/C23CCC(OCc4c(-c5c(Cl)cncc5Cl)noc4C4CC4)(CC2)CC3)cc1F [Example 594] | 6.82 |

| SMILES | pEC50 |
| --- | --- |
| Cn1c(C(=O)O)cc2ccc(/C=C/C34CCC(OCc5c(-c6c(Cl)cncc6Cl)noc5C5CC5)(CC3)CC4)cc21 [Example 595] | 7.31 |
| O=C(O)Cc1ccc(/C=C/C23CCC(OCc4c(-c5c(Cl)cncc5Cl)noc4C4CC4)(CC2)CC3)cn1 [Example 596] | 5.87 |
| Cn1c(C(=O)O)cc2c(/C=C/C34CCC(OCc5c(-c6c(Cl)cncc6Cl)noc5C5CC5)(CC3)CC4)cccc21 [Example 597] | 6.68 |
| CCOc1cc(C(=O)O)nc2ccc(/C=C/C34CCC(OCc5c(-c6c(Cl)cncc6Cl)noc5C5CC5)(CC3)CC4)cc12 [Example 598] | 7.96 |
| O=C(O)c1cc2ccc(/C=C/C34CCC(OCc5c(-c6c(Cl)cncc6Cl)noc5C5CC5)(CC3)CC4)cc2c(Cl)n1 [Example 599] | 7.82 |
| O=C(O)Cc1cccc(/C=C/C23CCC(OCc4c(-c5c(Cl)cncc5Cl)noc4C4CC4)(CC2)CC3)c1 [Example 600] | 5.69 |
| COCCCOc1nc(C(=O)O)cc2ccc(/C=C/C34CCC(OCc5c(-c6c(Cl)cncc6Cl)noc5C5CC5)(CC3)CC4)cc12 [Example 601] | 7.74 |
| O=C(O)Cc1ccc(/C=C/C23CCC(OCc4c(-c5c(Cl)cncc5Cl)noc4C4CC4)(CC2)CC3)c(F)c1 [Example 602] | 7.09 |
| O=C(O)c1cc2ccc(/C=C/C34CCC(OCc5c(-c6c(Cl)cncc6Cl)noc5C5CC5)(CC3)CC4)cc2c(N2CCOCC2)n1 [Example 603] | 7.74 |
| CCOc1nc(C(=O)O)cc2ccc(/C=C/C34CCC(OCc5c(-c6c(Cl)cncc6Cl)noc5C5CC5)(CC3)CC4)cc12 [Example 604] | 7.36 |
| COc1ccc(/C=C/C23CCC(OCc4c(-c5c(Cl)cncc5Cl)noc4C4CC4)(CC2)CC3)cc1CCC(=O)O [Example 605] | 6.36 |
| O=C(O)CCc1ccc(/C=C/C23CCC(OCc4c(-c5c(Cl)cncc5Cl)noc4C4CC4)(CC2)CC3)cc1 [Example 606] | 6.80 |
| O=C(O)CCc1ccc(/C=C/C23CCC(OCc4c(-c5c(Cl)cncc5Cl)noc4C4CC4)(CC2)CC3)cc1F [Example 607] | 6.57 |
| O=C(O)COc1ccc(/C=C/C23CCC(OCc4c(-c5c(Cl)cncc5Cl)noc4C4CC4)(CC2)CC3)c(F)c1 [Example 608] | 5.99 |
| COC1CN(c2nc(C(=O)O)cc3ccc(/C=C/C45CCC(OCc6c(-c7c(Cl)cncc7Cl)noc6C6CC6)(CC4)CC5)cc23)C1 [Example 609] | 7.17 |
| O=C(O)c1cc2ccc(/C=C/C34CCC(OCc5c(-c6c(Cl)cncc6Cl)noc5C5CC5)(CC3)CC4)cc2c(N2CC(O)C2)n1 [Example 610] | 7.11 |
| O=C(O)c1cc2ccc(/C=C/C34CCC(OCc5c(-c6c(Cl)cncc6Cl)noc5C5CC5)(CC3)CC4)cc2c(N2CC(F)C2)n1 [Example 611] | 7.66 |
| O=C(O)c1cc2ccc(/C=C/C34CCC(OCc5c(-c6c(Cl)cncc6Cl)noc5C5CC5)(CC3)CC4)cc2c(N2CC(CO)C2)n1 [Example 612] | 6.97 |
| O=C(O)c1cc2ccc(/C=C/C34CCC(OCc5c(-c6c(Cl)cncc6Cl)noc5C5CC5)(CC3)CC4)cc2c(OC2CCC2)n1 [Example 613] | 6.53 |
| O=C(O)c1cc2ccc(/C=C/C34CCC(OCc5c(-c6c(Cl)cncc6Cl)noc5C5CC5)(CC3)CC4)cc2c(OC2CC2)n1 [Example 614] | 7.29 |
| O=C(O)c1cc2ccc(/C=C/C34CCC(OCc5c(-c6c(Cl)cncc6Cl)noc5C5CC5)(CC3)CC4)cc2c(OC2CCCC2)n1 [Example 615] | 7.28 |
| O=C(O)COc1ccc(/C=C/C23CCC(OCc4c(-c5c(Cl)cncc5Cl)noc4C4CC4)(CC2)CC3)cn1 [Example 616] | 5.52 |
| O=C(O)COc1cc(/C=C/C23CCC(OCc4c(-c5c(Cl)cncc5Cl)noc4C4CC4)(CC2)CC3)ccn1 [Example 617] | 5.83 |
| CNC(=O)Cc1ccc(/C=C/C23CCC(OCc4c(-c5c(Cl)cncc5Cl)noc4C4CC4)(CC2)CC3)cc1 [Example 618] | 6.41 |
| Clc1cncc(Cl)c1-c1noc(C2CC2)c1COC12CCC(/C=C/c3ccc(Cc4nn[nH]n4)cc3)(CC1)CC2 [Example 619] | 6.67 |
| CN(C)C(=O)Cc1ccc(/C=C/C23CCC(OCc4c(-c5c(Cl)cncc5Cl)noc4C4CC4)(CC2)CC3)cc1 [Example 620] | 6.42 |

Source: patent US10730863B2, “Bridged bicyclic compounds as farnesoid X receptor modulators” (BRISTOL-MYERS SQUIBB COMPANY, priority 2017, dated 2020)
